Measured values published in patent US9321790B2, “Pyrimidinone derivatives as antimalarial agents” (SANOFI, priority 2012, dated 2016).
Where two headings read alike, the source gives them in different places.

Experiments:
[1] = tested on: Plasmodium falciparum (strain NF54); experiment: Antimalarial activity test: growth of Plasmodium falciparum in infected human erythrocytes, 3H-hypoxanthine incorporation; type: cell-based; settings: strain NF54 sensitive to chloroquine, 72 h total incubation
Summary of the method: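 Chloroquine-sensitive NF54 parasites in human erythrocytes (1.25% hematocrit, 0.15% parasitemia) were grown in hypoxanthine-free RPMI 1640 with HEPES and Albumax II, with compound in twofold serial dilution, at 37 °C under 93% N2/4% CO2/3% O2. After 48 h, 3H-hypoxanthine (0.5 μCi) was added for 24 h. Scintillation counts versus drug-free control gave IC50.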

human PI3Kα = human PI3Kα (Homo sapiens (Human), UniProt P42336); experiment: Human PI3Kα activity test (luciferin/luciferase ATP consumption, KinaseGlo); type: biochemical
Sequence of human PI3Kα (P42336 whole entry): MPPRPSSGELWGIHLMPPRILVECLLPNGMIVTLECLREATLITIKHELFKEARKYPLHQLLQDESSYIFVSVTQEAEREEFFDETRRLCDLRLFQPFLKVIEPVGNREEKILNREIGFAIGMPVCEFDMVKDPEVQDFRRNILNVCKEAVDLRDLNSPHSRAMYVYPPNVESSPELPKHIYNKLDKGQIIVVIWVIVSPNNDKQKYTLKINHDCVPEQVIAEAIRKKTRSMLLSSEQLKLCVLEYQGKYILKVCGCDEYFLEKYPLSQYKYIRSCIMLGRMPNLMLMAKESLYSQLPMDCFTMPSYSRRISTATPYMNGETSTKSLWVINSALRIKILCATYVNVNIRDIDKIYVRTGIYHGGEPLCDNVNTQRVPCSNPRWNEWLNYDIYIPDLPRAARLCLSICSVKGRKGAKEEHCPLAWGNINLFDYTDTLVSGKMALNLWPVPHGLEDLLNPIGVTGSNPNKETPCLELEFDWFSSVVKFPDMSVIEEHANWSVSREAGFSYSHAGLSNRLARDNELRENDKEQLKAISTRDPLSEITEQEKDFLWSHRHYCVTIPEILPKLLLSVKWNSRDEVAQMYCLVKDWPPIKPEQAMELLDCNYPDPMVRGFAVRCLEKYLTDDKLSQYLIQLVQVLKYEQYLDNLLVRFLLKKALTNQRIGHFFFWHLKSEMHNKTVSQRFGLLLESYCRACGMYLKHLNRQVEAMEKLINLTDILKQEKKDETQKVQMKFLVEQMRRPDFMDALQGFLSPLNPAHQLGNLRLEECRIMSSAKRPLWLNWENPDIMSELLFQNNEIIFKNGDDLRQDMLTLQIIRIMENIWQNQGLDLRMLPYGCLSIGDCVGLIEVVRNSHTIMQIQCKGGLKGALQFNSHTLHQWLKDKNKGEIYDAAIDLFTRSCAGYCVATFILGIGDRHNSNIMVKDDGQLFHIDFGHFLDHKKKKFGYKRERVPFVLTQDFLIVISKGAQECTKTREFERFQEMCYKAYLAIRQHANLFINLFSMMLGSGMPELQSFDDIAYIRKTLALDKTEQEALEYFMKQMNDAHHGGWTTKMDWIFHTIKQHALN
Sequence of human PI3Kα (P27986 whole entry partner): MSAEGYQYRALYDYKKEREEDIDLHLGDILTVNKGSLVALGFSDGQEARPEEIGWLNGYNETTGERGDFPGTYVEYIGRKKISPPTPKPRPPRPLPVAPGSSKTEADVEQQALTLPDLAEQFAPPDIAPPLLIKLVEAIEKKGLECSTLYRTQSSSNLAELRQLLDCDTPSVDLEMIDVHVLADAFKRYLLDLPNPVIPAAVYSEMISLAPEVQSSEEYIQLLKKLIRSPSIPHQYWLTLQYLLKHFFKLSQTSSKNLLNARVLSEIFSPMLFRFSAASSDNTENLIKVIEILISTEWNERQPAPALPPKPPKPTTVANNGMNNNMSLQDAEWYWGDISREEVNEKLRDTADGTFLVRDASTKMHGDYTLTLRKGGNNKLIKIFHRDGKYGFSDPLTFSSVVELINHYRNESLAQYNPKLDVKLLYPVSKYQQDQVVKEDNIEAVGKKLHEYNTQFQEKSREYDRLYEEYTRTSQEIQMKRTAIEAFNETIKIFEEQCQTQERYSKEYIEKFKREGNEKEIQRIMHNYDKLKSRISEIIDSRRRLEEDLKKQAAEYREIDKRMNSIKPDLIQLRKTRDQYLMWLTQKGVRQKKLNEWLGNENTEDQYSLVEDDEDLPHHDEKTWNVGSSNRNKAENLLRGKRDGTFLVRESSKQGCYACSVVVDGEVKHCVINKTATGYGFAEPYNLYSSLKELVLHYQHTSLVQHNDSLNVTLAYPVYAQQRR
Experimental: The test uses a luciferin/luciferase system to measure the concentration of ATP and its consumption during the enzymatic reaction.
After 90 minutes, the reaction is quenched by adding 20 μl/well of KinaseGlo reagent (Promega V6713). After 10 minutes in the dark, the luminescence is read using a PHERAStar microplate reader (reading at 0.8 sec/well).

[2] = Plasmodium falciparum, Erythrocyte
[3] = PI3Kα (p110α/p85α), 50 μM PIP2, 2 μM ATP, 90 minutes, read-out: IC50 Human PI3Kα

SMILES	IC50 [1, 2] [nM]	IC50 (human PI3Kα; [3]) [nM]	IC50 (human PI3Kα) [nM]	IC50 [1] [nM]
O=C(CN1c2nc(N3C[C@@H]4C[C@H]3CO4)cc(=O)n2CC[C@H]1C(F)(F)F)c1ccc(OCCF)nc1 [Compound 63, (S)-9-{2-[6-(2-fluoroethoxy)pyrid-3-yl]-2-oxoethyl}-2-(1S,4S)-2-oxa-5-azabicyclo[2.2.1]hept-5-yl-8-trifluoromethyl-6,7,8,9-tetrahydropyrimido[1,2-a]pyrimidin-4-one]	384	> 7200	–	–
C[C@@]1(C(F)(F)F)Cn2c(nc(N3CC4CCC(C3)O4)cc2=O)N1CCCc1ccccc1 [Compound 77, (S)-2-Methyl-7-(8-oxa-3-azabicyclo[3.2.1]oct-3-yl)-1-(3-phenylpropyl)-2-trifluoromethyl-2,3-dihydro-1H-imidazo[1,2-a]pyrimidin-5-one]	160	820	–	–
O=C(CN1c2nc(N3C4CCC3COC4)cc(=O)n2CC[C@H]1C(F)(F)F)c1cccnc1 [Compound 85, (8S)-2-(3-Oxa-8-azabicyclo[3.2.1]oct-8-yl)-9-(2-oxo-2-pyrid-3-ylethyl)-8-trifluoromethyl-6,7,8,9-tetrahydropyrimido[1,2-a]pyrimidin-4-one]	150	–	> 10000	–
CS(=O)(=O)c1ccc(C(=O)CN2c3nc(N4C[C@@H]5C[C@H]4CO5)cc(=O)n3CC[C@H]2C(F)(F)F)cc1 [Compound 108, (8S)-9-[2-(4-Methanesulfonylphenyl)-2-oxoethyl]-2-(1S,4S)-2-oxa-5-azabicyclo[2.2.1]hept-5-yl-8-trifluoromethyl-6,7,8,9-tetrahydropyrimido[1,2-a]pyrimidin-4-one]	86	> 10000	–	–
CN(C)CCCOc1ccc(CCN2c3nc(N4CC5CCC(C4)O5)cc(=O)n3C[C@@]2(C)C(F)(F)F)cc1 [Compound 78, (S)-1-{2-[4-(3-Dimethylaminopropoxyl)phenyl]ethyl}-2-methyl-7-(8-oxa-3-azabicyclo[3.2.1]oct-3-yl)-2-trifluoromethyl-2,3-dihydro-1H-imidazo[1,2-a]pyrimidin-5-one]	360	250	–	–
COc1ccc(C(=O)CN2c3nc(N4C[C@@H]5C[C@H]4CO5)cc(=O)n3CC[C@H]2C(F)(F)F)cn1 [Compound 45, (8S)-9-[2-(6-methoxypyrid-3-yl)-2-oxoethyl]-2-(1S,4S)-2-oxa-5-azabicyclo[2.2.1]hept-5-yl-8-trifluoromethyl-6,7,8,9-tetrahydropyrimido[1,2-a]pyrimidin-4-one]	112	> 10000	–	–
O=c1cc(N2C[C@@H]3C[C@H]2CO3)nc2n1CC[C@@H](C(F)(F)F)N2CC1CCOCC1 [Compound 93, (8S)-2-(1S,4S)-2-oxa-5-azabicyclo[2.2.1]hept-5-yl-9-(tetrahydropyran-4-ylmethyl)-8-trifluoromethyl-6,7,8,9-tetrahydropyrimido[1,2-a]pyrimidin-4-one]	4	780	–	–
O=C(CN1c2nc(N3C[C@@H]4C[C@H]3CO4)cc(=O)n2CC[C@H]1C(F)(F)F)c1cnc(OCC2CC2)nc1 [Compound 52, (8S)-9-[2-(2-Cyclopropylmethoxypyrimidin-5-yl)-2-oxoethyl]-2-(1S,4S)-2-oxa-5-azabicyclo[2.2.1]hept-5-yl-8-trifluoromethyl-6,7,8,9-tetrahydropyrimido[1,2-a]pyrimidin-4-one]	130	> 10000	–	–
Cc1ccc(C(=O)CN2c3nc(N4C[C@@H]5C[C@H]4CO5)cc(=O)n3C[C@@]2(C)C(F)(F)F)cn1 [Compound 17, 2-methyl-1-[2-(6-methylpyrid-3-yl)-2-oxoethyl]-7-(1S,4S)-2-oxa-5-azabicyclo[2.2.1]hept-5-yl-2-((S)-trifluoromethyl)-2,3-dihydro-1H-imidazo[1,2-a]pyrimidin-5-one]	160	≥ 10000	–	–
O=c1cc(N2C[C@@H]3C[C@H]2CO3)nc2n1CC[C@@H](C(F)(F)F)N2CCC1CCOCC1 [Compound 92, (8S)-2-(1S,4S)-2-oxa-5-azabicyclo[2.2.1]hept-5-yl-9-[2-(tetrahydropyran-4-yl)ethyl]-8-trifluoromethyl-6,7,8,9-tetrahydropyrimido[1,2-a]pyrimidin-4-one]	4	450	–	–
COc1cc(F)ccc1[C@H](O)CN1c2nc(N3CC4CCC(C3)O4)cc(=O)n2CC[C@H]1C(F)(F)F [Compound 71, (8S)-9-[(S)-2-(4-fluoro-2-methoxyphenyl)-2-hydroxyethyl]-2-(8-oxa-3-azabicyclo[3.2.1]oct-3-yl)-8-trifluoromethyl-6,7,8,9-tetrahydropyrimido[1,2-a]pyrimidin-4-one]	23	810	–	–
CNc1ccc(C(=O)CN2c3nc(N4C[C@@H]5C[C@H]4CO5)cc(=O)n3C[C@@]2(C)C(F)(F)F)cn1 [Compound 9, 2-methyl-1-[2-(6-methylaminopyrid-3-yl)-2-oxoethyl]-7-(1S,4S)-2-oxa-5-azabicyclo[2.2.1]hept-5-yl-2-((S)-trifluoromethyl)-2,3-dihydro-1H-imidazo[1,2-a]pyrimidin-5-one]	> 200	> 10000	–	–
O=c1cc(N2C[C@@H]3C[C@H]2CO3)nc2n1CC[C@@H](C(F)(F)F)N2CCC(O)(C1CC1)C1CC1 [Compound 102, (8S)-9-(3,3-Dicyclopropyl-3-hydroxypropyl)-2-(1S,4S)-2-oxa-5-azabicyclo[2.2.1]hept-5-yl-8-trifluoromethyl-6,7,8,9-tetrahydropyrimido[1,2-a]pyrimidin-4-one]	5	2500	–	–
Cc1ccncc1C(=O)CN1c2nc(N3C[C@@H]4C[C@H]3CO4)cc(=O)n2CC[C@H]1C(F)(F)F [Compound 20, (8S)-9-[2-(4-methylpyrid-3-yl)-2-oxoethyl]-2-(1S,4S)-2-oxa-5-azabicyclo[2.2.1]hept-5-yl-8-trifluoromethyl-6,7,8,9-tetrahydropyrimido[1,2-a]pyrimidin-4-one]	35	> 10000	–	–
C[C@@]1(C(F)(F)F)Cn2c(nc(N3CC4CCC(C3)O4)cc2=O)N1C[C@@H](O)c1ccccc1 [Compound 79, (2S)-1-((S)-2-Hydroxy-2-phenylethyl)-2-methyl-7-(8-oxa-3-azabicyclo[3.2.1]oct-3-yl)-2-trifluoromethyl-2,3-dihydro-1H-imidazo[1,2-a]pyrimidin-5-one]	640	1600	–	–
C[C@@]1(C(F)(F)F)Cn2c(nc(N3C[C@@H]4C[C@H]3CO4)cc2=O)N1CCc1ccc(N)cc1 [Compound 32, 1-[2-(4-Aminophenyl)ethyl]-2-methyl-7-(1S,4S)-2-oxa-5-azabicyclo[2.2.1]hept-5-yl-2-((S)-trifluoromethyl)-2,3-dihydro-1H-imidazo[1,2-a]pyrimidin-5-one]	–	3700	–	4
C[C@@]1(C(F)(F)F)Cn2c(nc(N3C[C@@H]4C[C@H]3CO4)cc2=O)N1CC(=O)c1ccc(N)nc1 [Compound 11, (S)-1-[2-(6-Aminopyrid-3-yl)-2-oxoethyl]-2-methyl-7-(1S,4S)-2-oxa-5-azabicyclo[2.2.1]hept-5-yl-2-trifluoromethyl-2,3-dihydro-1H-imidazo[1,2-a]pyrimidin-5-one]	40	≥ 10000	–	–
C[C@@]1(C(F)(F)F)Cn2c(nc(N3CC4CCC(C3)O4)cc2=O)N1CCc1ccc(O)cc1 [Compound 72, (S)-1-[2-(4-hydroxyphenyl)ethyl]-2-methyl-7-(8-oxa-3-azabicyclo[3.2.1]oct-3-yl)-2-trifluoromethyl-2,3-dihydro-1H-imidazo[1,2-a]pyrimidin-5-one]	37	730	–	–
O=C(CN1c2nc(N3C[C@@H]4C[C@H]3CO4)cc(=O)n2CC[C@H]1C(F)(F)F)c1ccc(OCCF)c(F)c1 [Compound 64, (8S)-9-{2-[3-Fluoro-4-(2-fluoroethoxyl)phenyl]-2-oxoethyl}-2-(1S,4S)-2-oxa-5-azabicyclo[2.2.1]hept-5-yl-8-trifluoromethyl-6,7,8,9-tetrahydropyrimido[1,2-a]pyrimidin-4-one]	39	> 10000	–	–
Cc1ncccc1C(=O)CN1c2nc(N3C[C@@H]4C[C@H]3CO4)cc(=O)n2C[C@@]1(C)C(F)(F)F [Compound 18, 2-Methyl-1-[2-(2-methylpyrid-3-yl)-2-oxoethyl]-7-(1S,4S)-2-oxa-5-azabicyclo[2.2.1]hept-5-yl-2-((S)-trifluoromethyl)-2,3-dihydro-1H-imidazo[1,2-a]pyrimidin-5-one]	–	> 10000	–	93
Cc1n[nH]c(C)c1CCN1c2nc(N3C[C@@H]4C[C@H]3CO4)cc(=O)n2C[C@@]1(C)C(F)(F)F [Compound 28, 1-[2-(3,5-Dimethyl-1H-pyrazol-4-yl)ethyl]-2-methyl-7-(1S,4S)-2-oxa-5-azabicyclo[2.2.1]hept-5-yl-2-((S)-trifluoromethyl)-2,3-dihydro-1H-imidazo[1,2-a]pyrimidin-5-one]	–	2260	–	9
N#Cc1ccc(C(=O)CN2c3nc(N4C[C@@H]5C[C@H]4CO5)cc(=O)n3CC[C@H]2C(F)(F)F)cc1 [Compound 42, 4-[2-((S)-8-(1S,4S)-2-Oxa-5-azabicyclo[2.2.1]hept-5-yl-6-oxo-2-trifluoromethyl-3,4-dihydro-2H,6H-pyrimido[1,2-a]pyrimidin-1-yl)acetyl]benzonitrile]	–	> 10000	–	80
O=C(CN1c2nc(N3C[C@@H]4C[C@H]3CO4)cc(=O)n2CC[C@H]1C(F)(F)F)c1ccc2nccn2c1 [Compound 113, (8S)-9-(2-Imidazo[1,2-a]pyrid-6-yl-2-oxoethyl)-2-(1S,4S)-2-oxa-5-azabicyclo[2.2.1]hept-5-yl-8-trifluoromethyl-6,7,8,9-tetrahydropyrimido[1,2-a]pyrimidin-4-one]	430	> 10000	–	–
